Measurements reported in the NIST ThermoML archive (doi:10.1021/acs.jced.7b00107).
Several values for one entry are separate records, joined by “and”; a condition that tells them apart may be missing. Equal entries are not always repeated.

Assay: molar heat capacity at constant pressure
Conditions: 101.33 kPa, Small (less than 1 g) adiabatic calorimetry

Cl.NC12CC3CC(CC(C3)C1)C2 [1-aminoadamantane hydrochloride]
Conditions	molar heat capacity at constant pressure
5 K, Crystal 3	0.585 J/K/mol
5.01 K, Crystal 3	0.5801 J/K/mol
5.25 K, Crystal 3	0.6835 J/K/mol
5.49 K, Crystal 3	0.7946 J/K/mol
5.75 K, Crystal 3	0.916 J/K/mol
6 K, Crystal 3	1.051 J/K/mol
6.3 K, Crystal 3	1.22 J/K/mol
6.62 K, Crystal 3	1.42 J/K/mol
6.95 K, Crystal 3	1.642 J/K/mol
7.29 K, Crystal 3	1.891 J/K/mol
7.64 K, Crystal 3	2.153 J/K/mol
7.99 K, Crystal 3	2.437 J/K/mol
8.34 K, Crystal 3	2.747 J/K/mol
8.7 K, Crystal 3	3.078 J/K/mol
9.06 K, Crystal 3	3.426 J/K/mol
9.43 K, Crystal 3	3.794 J/K/mol
9.79 K, Crystal 3	4.174 J/K/mol
10 K, Crystal 3	4.396 J/K/mol
10.17 K, Crystal 3	4.569 J/K/mol
10.64 K, Crystal 3	5.116 J/K/mol
11.22 K, Crystal 3	5.781 J/K/mol
11.81 K, Crystal 3	6.479 J/K/mol
12.4 K, Crystal 3	7.208 J/K/mol
13 K, Crystal 3	7.971 J/K/mol
13.6 K, Crystal 3	8.754 J/K/mol
14.21 K, Crystal 3	9.533 J/K/mol
14.82 K, Crystal 3	10.38 J/K/mol
15 K, Crystal 3	10.64 J/K/mol
15.54 K, Crystal 3	11.36 J/K/mol
16.37 K, Crystal 3	12.56 J/K/mol
17.21 K, Crystal 3	13.72 J/K/mol
18.05 K, Crystal 3	14.85 J/K/mol
18.89 K, Crystal 3	15.98 J/K/mol
19.74 K, Crystal 3	17.1 J/K/mol
20 K, Crystal 3	17.48 J/K/mol
20.86 K, Crystal 3	18.62 J/K/mol
22.27 K, Crystal 3	20.49 J/K/mol
23.7 K, Crystal 3	22.36 J/K/mol
25 K, Crystal 3	24 J/K/mol
25.12 K, Crystal 3	24.15 J/K/mol
26.55 K, Crystal 3	25.89 J/K/mol
27.96 K, Crystal 3	27.53 J/K/mol
29.45 K, Crystal 3	29.22 J/K/mol
30 K, Crystal 3	29.84 J/K/mol
31.06 K, Crystal 3	31 J/K/mol
32.82 K, Crystal 3	32.84 J/K/mol
34.59 K, Crystal 3	34.6 J/K/mol
35 K, Crystal 3	34.98 J/K/mol
36.37 K, Crystal 3	36.26 J/K/mol
38.14 K, Crystal 3	37.9 J/K/mol
39.92 K, Crystal 3	39.49 J/K/mol
40 K, Crystal 3	39.56 J/K/mol
41.79 K, Crystal 3	41.08 J/K/mol
43.77 K, Crystal 3	42.73 J/K/mol
45 K, Crystal 3	43.74 J/K/mol
45.75 K, Crystal 3	44.38 J/K/mol
47.72 K, Crystal 3	45.9 J/K/mol
49.71 K, Crystal 3	47.41 J/K/mol
50 K, Crystal 3	47.63 J/K/mol
51.69 K, Crystal 3	48.89 J/K/mol
53.68 K, Crystal 3	50.26 J/K/mol
55.67 K, Crystal 3	51.64 J/K/mol
57.67 K, Crystal 3	52.99 J/K/mol
59.67 K, Crystal 3	54.32 J/K/mol
60 K, Crystal 3	54.53 J/K/mol
61.67 K, Crystal 3	55.65 J/K/mol
63.67 K, Crystal 3	56.94 J/K/mol
65.68 K, Crystal 3	58.17 J/K/mol
67.69 K, Crystal 3	59.45 J/K/mol
69.7 K, Crystal 3	60.69 J/K/mol
70 K, Crystal 3	60.92 J/K/mol
71.71 K, Crystal 3	62 J/K/mol
73.72 K, Crystal 3	63.24 J/K/mol
75.74 K, Crystal 3	64.48 J/K/mol
77.75 K, Crystal 3	65.74 J/K/mol
78.45 K, Crystal 3	66.2 J/K/mol
79.78 K, Crystal 3	66.97 J/K/mol
80 K, Crystal 3	67.11 J/K/mol
80.56 K, Crystal 3	67.47 J/K/mol
81.8 K, Crystal 3	68.23 J/K/mol
82.48 K, Crystal 3	68.62 J/K/mol
83.83 K, Crystal 3	69.44 J/K/mol
84.4 K, Crystal 3	69.79 J/K/mol
86.32 K, Crystal 3	71.01 J/K/mol
88.24 K, Crystal 3	72.23 J/K/mol
90 K, Crystal 3	73.32 J/K/mol
90.17 K, Crystal 3	73.44 J/K/mol
92.09 K, Crystal 3	74.67 J/K/mol
94.02 K, Crystal 3	75.9 J/K/mol
95.95 K, Crystal 3	77.18 J/K/mol
97.89 K, Crystal 3	78.44 J/K/mol
99.83 K, Crystal 3	79.74 J/K/mol
100 K, Crystal 3	79.81 J/K/mol
100.61 K, Crystal 3	80.3 J/K/mol
101.77 K, Crystal 3	81.04 J/K/mol
102.13 K, Crystal 3	81.29 J/K/mol
103.66 K, Crystal 3	82.26 J/K/mol
103.71 K, Crystal 3	82.35 J/K/mol
105.19 K, Crystal 3	83.26 J/K/mol
105.66 K, Crystal 3	83.7 J/K/mol
106.71 K, Crystal 3	84.46 J/K/mol
107.61 K, Crystal 3	85.07 J/K/mol
108.24 K, Crystal 3	85.55 J/K/mol
109.57 K, Crystal 3	86.53 J/K/mol
109.77 K, Crystal 3	86.68 J/K/mol
110 K, Crystal 3	86.83 J/K/mol
110.61 K, Crystal 3	87.3 J/K/mol
111.3 K, Crystal 3	87.82 J/K/mol
111.52 K, Crystal 3	88.04 J/K/mol
111.99 K, Crystal 3	88.23 J/K/mol
112.83 K, Crystal 3	89.22 J/K/mol
113 K, Crystal 3	89.28 J/K/mol
113.48 K, Crystal 3	89.74 J/K/mol
114.01 K, Crystal 3	90.15 J/K/mol
114.36 K, Crystal 3	90.6 J/K/mol
115.02 K, Crystal 3	91.42 J/K/mol
115.44 K, Crystal 3	92 J/K/mol
115.56 K, Crystal 3	91.67 J/K/mol
115.89 K, Crystal 3	92.64 J/K/mol
116.03 K, Crystal 3	92.78 J/K/mol
116.09 K, Crystal 3	92.4 J/K/mol
116.58 K, Crystal 3	93.36 J/K/mol
117.03 K, Crystal 3	94.87 J/K/mol
117.07 K, Crystal 3	94.53 J/K/mol
117.39 K, Crystal 3	96.19 J/K/mol
117.4 K, Crystal 3	96.04 J/K/mol
117.56 K, Crystal 3	95.93 J/K/mol
118.03 K, Crystal 3	98.29 J/K/mol
118.05 K, Crystal 3	97.56 J/K/mol
118.53 K, Crystal 3	100.2 J/K/mol
118.9 K, Crystal 3	105.3 J/K/mol
119.01 K, Crystal 3	104 J/K/mol
119.02 K, Crystal 3	105.6 J/K/mol
119.31 K, Crystal 3	108.3 J/K/mol
119.48 K, Crystal 3	110.1 J/K/mol
119.95 K, Crystal 3	112.9 J/K/mol
119.99 K, Crystal 3	111.4 J/K/mol
120 K, Crystal 2	94.01 J/K/mol
120 K, Crystal 3	94.01 J/K/mol
120.37 K, Crystal 2	108.5 J/K/mol
120.42 K, Crystal 2	108.5 J/K/mol
120.89 K, Crystal 2	104.8 J/K/mol
120.95 K, Crystal 2	106.2 J/K/mol
121.24 K, Crystal 2	112.4 J/K/mol
121.37 K, Crystal 2	108.6 J/K/mol
121.81 K, Crystal 2	125.5 J/K/mol
121.84 K, Crystal 2	120 J/K/mol
121.91 K, Crystal 2	126.5 J/K/mol
122.28 K, Crystal 2	146.1 J/K/mol
122.69 K, Crystal 2	168 J/K/mol
122.76 K, Crystal 2	187.7 J/K/mol
123.07 K, Crystal 1	165.2 J/K/mol and 227.7 J/K/mol
123.1 K, Crystal 1	96.21 J/K/mol
123.1 K, Crystal 2	96.21 J/K/mol
123.13 K, Crystal 1	176.4 J/K/mol
123.47 K, Crystal 1	148 J/K/mol
123.61 K, Crystal 1	138.3 J/K/mol
123.92 K, Crystal 1	106.3 J/K/mol
124.41 K, Crystal 1	99.7 J/K/mol
124.5 K, Crystal 1	100.8 J/K/mol
124.56 K, Crystal 1	99.57 J/K/mol
124.9 K, Crystal 1	99.18 J/K/mol
125.12 K, Crystal 1	99.65 J/K/mol
125.39 K, Crystal 1	98.8 J/K/mol
125.57 K, Crystal 1	98.89 J/K/mol
125.88 K, Crystal 1	98.68 J/K/mol
126.03 K, Crystal 1	99.11 J/K/mol
126.58 K, Crystal 1	99.15 J/K/mol
127.3 K, Crystal 1	99.61 J/K/mol
127.57 K, Crystal 1	99.64 J/K/mol
129.1 K, Crystal 1	100.5 J/K/mol
129.28 K, Crystal 1	100.6 J/K/mol
130 K, Crystal 1	101 J/K/mol
130.63 K, Crystal 1	101.5 J/K/mol
131.26 K, Crystal 1	101.8 J/K/mol
132.16 K, Crystal 1	102.5 J/K/mol
133.24 K, Crystal 1	103.2 J/K/mol
133.7 K, Crystal 1	103.5 J/K/mol
135.22 K, Crystal 1	104.5 J/K/mol
135.23 K, Crystal 1	104.6 J/K/mol
136.76 K, Crystal 1	105.6 J/K/mol
137.2 K, Crystal 1	105.9 J/K/mol
138.29 K, Crystal 1	106.7 J/K/mol
139.19 K, Crystal 1	107.3 J/K/mol
139.83 K, Crystal 1	107.7 J/K/mol
140 K, Crystal 1	107.9 J/K/mol
141.18 K, Crystal 1	108.6 J/K/mol
141.36 K, Crystal 1	108.7 J/K/mol
142.89 K, Crystal 1	109.4 J/K/mol
143.17 K, Crystal 1	109.5 J/K/mol
144.42 K, Crystal 1	109.9 J/K/mol
145.16 K, Crystal 1	110.1 J/K/mol
145.95 K, Crystal 1	110.4 J/K/mol
147.16 K, Crystal 1	110.9 J/K/mol
147.49 K, Crystal 1	111.1 J/K/mol
149.02 K, Crystal 1	111.7 J/K/mol
149.15 K, Crystal 1	111.8 J/K/mol
150 K, Crystal 1	112.2 J/K/mol
150.57 K, Crystal 1	112.4 J/K/mol
151.15 K, Crystal 1	112.7 J/K/mol
152.11 K, Crystal 1	113.3 J/K/mol
153.15 K, Crystal 1	113.8 J/K/mol
153.64 K, Crystal 1	114.2 J/K/mol
155.14 K, Crystal 1	114.9 J/K/mol
155.18 K, Crystal 1	114.9 J/K/mol
156.72 K, Crystal 1	115.7 J/K/mol
157.14 K, Crystal 1	116.1 J/K/mol
158.25 K, Crystal 1	116.7 J/K/mol
159.14 K, Crystal 1	117.2 J/K/mol
159.79 K, Crystal 1	117.6 J/K/mol
160 K, Crystal 1	117.7 J/K/mol
161.14 K, Crystal 1	118.4 J/K/mol
161.32 K, Crystal 1	118.5 J/K/mol
162.86 K, Crystal 1	119.5 J/K/mol
163.14 K, Crystal 1	119.6 J/K/mol
164.39 K, Crystal 1	120.4 J/K/mol
165.15 K, Crystal 1	120.8 J/K/mol
165.92 K, Crystal 1	121.2 J/K/mol
167.15 K, Crystal 1	122 J/K/mol
167.45 K, Crystal 1	122.3 J/K/mol
168.98 K, Crystal 1	123.2 J/K/mol
169.15 K, Crystal 1	123.3 J/K/mol
170 K, Crystal 1	123.8 J/K/mol
170.51 K, Crystal 1	124.1 J/K/mol
171.16 K, Crystal 1	124.6 J/K/mol
172.04 K, Crystal 1	125 J/K/mol
173.17 K, Crystal 1	125.8 J/K/mol
173.57 K, Crystal 1	126 J/K/mol
175.1 K, Crystal 1	127 J/K/mol
175.17 K, Crystal 1	127 J/K/mol
176.62 K, Crystal 1	127.9 J/K/mol
177.18 K, Crystal 1	128.3 J/K/mol
178.14 K, Crystal 1	128.9 J/K/mol
179.19 K, Crystal 1	129.6 J/K/mol
179.67 K, Crystal 1	130 J/K/mol
180 K, Crystal 1	130.1 J/K/mol
181.19 K, Crystal 1	130.9 J/K/mol
181.2 K, Crystal 1	130.9 J/K/mol
182.7 K, Crystal 1	131.9 J/K/mol
183.21 K, Crystal 1	132.2 J/K/mol
184.22 K, Crystal 1	132.8 J/K/mol
185.23 K, Crystal 1	133.5 J/K/mol
185.74 K, Crystal 1	133.8 J/K/mol
187.24 K, Crystal 1	134.8 J/K/mol
187.25 K, Crystal 1	134.8 J/K/mol
188.76 K, Crystal 1	135.8 J/K/mol
189.25 K, Crystal 1	136.2 J/K/mol
190 K, Crystal 1	136.6 J/K/mol
190.27 K, Crystal 1	136.9 J/K/mol
191.27 K, Crystal 1	137.4 J/K/mol
191.79 K, Crystal 1	137.9 J/K/mol
193.28 K, Crystal 1	138.8 J/K/mol
193.3 K, Crystal 1	138.9 J/K/mol
194.8 K, Crystal 1	139.9 J/K/mol
195.3 K, Crystal 1	140.1 J/K/mol
